Measurements as given in patent US5780307A, “Immunosuppressive drug binding proteins and use” (priority 1996, dated 1998).
“And” between values parts separate entries of the source, which are not always exact repeats. Equal values may be shown once. Read-outs that look alike come from different tables or passages of the source. Starred links: 1 amine or outer side, 2 acyl side, 3 side chain; linkers in the order of their positions; H or OH if unused. Residues, ends and D or L forms follow the SMILES beside them. *: point of attachment. pNA = O=[N+]([O-])c1ccc(N*)cc1; Suc = O=C(CCC(=O)[*:2])[*:1]

What was measured:
[1] = tested on: calf thymus 50-54 kDa immunophilin; test: Rotamase (peptidyl-prolyl cis-trans isomerase) assay, 50-54 kDa immunophilin; format: biochemical; set-up: key: no activity observed; settings: rotamase activity with this peptide as substrate
Procedure: (§1) Rotamase activity (cis-trans peptidyl-prolyl isomerase activity) may be assayed in purified immunophilins using the methods of Fischer et al., Nature, 337:476 (1989) and Lange et al., Nature 4 331:453 (1988), which are incorporated herein by reference.
(§2) Only peptidyl propyl cis-trans isomerase activity to kobs values of greater than about 0.5 min^-1 are considered significant. Values below this are not considered to be due to the catalytic properties of the protein being analyzed.

[2] = tested on: 10-12 kDa immunophilin; test: Rotamase (peptidyl-prolyl cis-trans isomerase) assay, 10-12 kDa immunophilin; format: biochemical; set-up: key: no activity observed; settings: rotamase activity with this peptide as substrate
Procedure: as §1, §2

[3] = tested on: 34-37 kDa immunophilin (Jurkat cells); test: Radioreceptor assay / Scatchard analysis, purified 34-37 kDa immunophilin; format: binding
Procedure: Receptor density (Bmax), affinity (Kd) and Hill coefficients (nH) were obtained using EBDA and Ligand computer programs. Radioreceptor assay: The radioreceptor assay was done in a final volume of 250 μl. […] To assess total binding, 25 μL of 50 % ethanol alone was added to maintain a constant level of ethanol in the reaction. 100-150 μL of 5 mM phosphate buffer, pH 6.8, containing 0.2% Tween 20, was added. 2-5 μg protein solution in 50-100 μL was added to obtain a final reaction volume of 250 μL. Following a 20 minute incubation at 25° C. on a shaker, 200 μL of the reaction mixture was added to Sephadex LH-20 columns (Pharmacia Biotech, Piscataway, N.J., U.S.A.,1.8 mL bed volume) equilibrated with LH-20 assay buffer (20 mM Tris buffer, pH 7.2, 5 mM β-mercaptoethanol and 0.05% sodium azide).
SDS-PAGE electrophoresis: The protein from the gel filtration fraction was analyzed for purity using 10% SDS-PAGE electrophoresis in the presence and absence of mercaptoethanol and visualized using DAIICHI-II silver staining. […] The data were analyzed using EBDA and Ligand computer programs.

[4] = tested on: JURKAT cell cytosol protein fractions; test: Binding and competition in JURKAT cytosol protein fractions; set-up: competition for CsA binding to 16-18 kDa and 50-54 kDa fractions / inhibition of [3H-dihydro]-FK-506 binding in all fractions: unit of the concentration uncertain
Procedure: This fraction (3.02 mg in 2.7 mL) was then passed through a BioSil-125 HPLC column at a flow rate of 1.0 mL/minute of 10 mM phosphate buffer, pH 6.8. Those fractions around the expected molecular weight (around 50 kDa) were tested for binding to [^3 H]

[5] = tested on: purified 50-54 kDa binding protein (JURKAT cells); test: Binding competition curves, purified 50-54 kDa binding protein, LH-20 separation
Procedure: Binding of [^3 H-dihydro]-FK506 to this protein was inhibited in a dose-dependent manner by rapamycin (B50 =0. 1 nM), whereas binding of [^3 H]-CSA to this protein was not affected by rapamycin at concentrations as high as 300 nM.

[6] = tested on: 50-54 kDa binding protein (JURKAT cells); test: Scatchard / direct binding to purified 50-54 kDa immunophilin
Procedure: (§3) Association constants, specific binding activities, and numbers and types of binding sites can be obtained from Scatchard and Hill plots, using EBDA and LIGAND software.
(§4) Bound and free ligand were separated using the above-described LH-20 system.
(§5) The binding proteins purified in Example 5 were incubated with increasing amounts of labeled ligand and the binding data analyzed according to Scatchard.

[7] = Storage stability of FK-506 in frozen blood; format: physicochemical; settings: frozen (-20° C.) blood
Procedure: The competition-type PBA was conducted as follows. […] Following a 20-minute incubation at 25° C., 100 μL of a reaction mixture was added to a 1.8 mL bed volume Sephadex LH-20 column preequilibrated with 20 mM Tris buffer, pH 7.2-5 mM 2-mercaptoethanol-0.05% NaN3. Elution with five 250 μL portions of this buffer completely separated free from protein-bound radioligand. The protein-bound radioactivity in the 1.25 mL of eluate was measured in 10 mL Optima Gold Scintillation Cocktail (Packard Chemicals, Meriden, Conn.) in a liquid scintillation spectrometer operating at 59% counting efficiency. […] All analyses were performed in duplicate.

[8] = molecular target: 10-12 kDa binding protein (JURKAT cells) (Homo sapiens, UniProt P62942); settings: Scatchard analysis, 10-12 kDa (8-12 kDa) protein
Procedure: as §3, §5

[9] = tested on: 50-54 kDa binding protein (JURKAT cells)
Procedure: as §3, §4, §5

Chain of 10-12 kDa binding protein (JURKAT cells) (P62942 whole entry): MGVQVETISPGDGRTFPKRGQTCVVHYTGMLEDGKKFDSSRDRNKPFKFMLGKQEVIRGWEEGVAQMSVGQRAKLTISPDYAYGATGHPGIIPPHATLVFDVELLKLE

SMILES	kobs, 50-54 kDa [1]	kobs, 10-12 kDa [2]	also measured
C[C@H](NC(=O)CCC(=O)O)C(=O)N[C@@H](CCC(N)=O)C(=O)N1CCC[C@H]1C(=O)N[C@@H](Cc1ccccc1)C(=O)Nc1ccc([N+](=O)[O-])cc1 [Suc--Ala--Gln--Pro--Phe--pNA] (Suc-AQPF-pNA)	0.22 min⁻¹	0.23 min^-1	–
CC(C)C[C@H](NC(=O)[C@@H]1CCCN1C(=O)[C@H](C)NC(=O)[C@H](C)NC(=O)CCC(=O)O)C(=O)Nc1ccc([N+](=O)[O-])cc1 [Suc--Ala--Ala--Pro--Leu--pNA] (Suc-AAPL-pNA)	0.45 min⁻¹	0.93 min^-1	–
CCC[C@@H]1/C=C(\C)C[C@H](C)C[C@H](OC)[C@H]2O[C@@](O)(C(=O)C(=O)N3CCCC[C@H]3C(=O)O[C@H](/C(C)=C/[C@@H]3CC[C@@H](O)[C@H](OC)C3)[C@H](C)[C@@H](O)CC1=O)[C@H](C)C[C@@H]2OC [tritiated dihydro FK506]	–	–	Kd ([3]; saturation experiments, 0.25 to 20 nM): 4.5 nM
[3H]CC([3H])C[C@@H]1/C=C(\C)C[C@H](C)C[C@H](OC)[C@H]2O[C@@](O)(C(=O)C(=O)N3CCCC[C@H]3C(=O)O[C@H](/C(C)=C/[C@@H]3CC[C@@H](O)[C@H](OC)C3)[C@H](C)[C@@H](O)CC1=O)[C@H](C)C[C@@H]2OC (stereo partly drawn) [tritiated dihydro FK506]	–	–	Hill coefficients ([3]; saturation experiments): near unity
CO[C@H]1C[C@@H]2CC[C@@H](C)[C@@](O)(O2)C(=O)C(=O)N2CCCC[C@H]2C(=O)O[C@H]([C@H](C)C[C@@H]2CC[C@@H](O)[C@H](OC)C2)CC(=O)[C@H](C)/C=C(\C)[C@@H](O)[C@@H](OC)C(=O)[C@H](C)C[C@H](C)/C=C/C=C/C=C/1C [rapamycin]	–	–	inhibition of [3H-dihydro]-FK-506 binding in all fractions ([4]; 0.7 (unit uncertain)): inhibited; competition for CsA binding to 16-18 kDa and 50-54 kDa fractions ([4]; 70 (unit uncertain)): did not compete; IC50 ([5]; 1.8 pmol [3H-dihydro]-FK-506, 15 minutes at 25° C., read-out: B50, inhibition of [3H-dihydro]-FK506 binding): 0.1 nM; effect on binding of [3H]-CSA to the 50-54 kDa protein ([5]; concentrations as high as 300 nM): not affected; binding to purified 50-54 kDa binding protein [6]: bound; Kd ([6]; read-out: dissociation constant, 50-54 kDa protein, unit inferred): 0.1 to 0.2 nM
C[C@H](NC(=O)CCC(=O)O)C(=O)N[C@@H](CCCCN)C(=O)N1CCC[C@H]1C(=O)N[C@@H](Cc1ccccc1)C(=O)Nc1ccc([N+](=O)[O-])cc1 [Suc--Ala--Lys--Pro--Phe--pNA]	0.24 min⁻¹	0.36 min^-1	–
C=CCC1C=C(C)CC(C)CC(OC)C2OC(O)(C(=O)C(=O)N3CCCCC3C(=O)OC(C(C)=CC3CCC(O)C(OC)C3)C(C)C(O)CC1=O)C(C)CC2OC (stereo not drawn) [FK-506, tacrolimus]	–	–	time without variability in assay results on storage [7]: at least 30 days; binding capacity / specific binding activity [8]: about 0.5 nmol/mg; Kd [9]: 1 to 10 nM and ~2 nM; inhibition of binding of [3H]-CSA ([4]; isoelectric focusing fraction at pH 6.29): inhibited; inhibition of binding of [3H]-CsA to the 50-54 kDa protein ([5]; all concentrations tested): inhibited; displacement of bound radioligand from the binding sites ([3]; 1 μM unlabelled drug, 20 min): > 95%; binding to purified 50-54 kDa binding protein [6]: bound
O=C(O)CCC(=O)N[C@@H](Cc1ccccc1)C(=O)N1CCC[C@H]1C(=O)N[C@@H](Cc1ccccc1)C(=O)Nc1ccc([N+](=O)[O-])cc1 [Suc--Phe--Pro--Phe--pNA] (Suc-Phe-Pro-Phe-pNA)	0.06 min⁻¹	0.63 min^-1	–
C[C@H](NC(=O)CCC(=O)O)C(=O)N[C@@H](Cc1c[nH]cn1)C(=O)N1CCC[C@H]1C(=O)N[C@@H](Cc1ccccc1)C(=O)Nc1ccc([N+](=O)[O-])cc1 [Suc--Ala--His--Pro--Phe--pNA] (Suc-AHPF-pNA)	0.06 min⁻¹	a	–
CCCC[C@H](NC(=O)[C@H](C)NC(=O)CCC(=O)O)C(=O)N1CCC[C@H]1C(=O)N[C@@H](Cc1ccccc1)C(=O)Nc1ccc([N+](=O)[O-])cc1 [Suc--Ala--Nle--Pro--Phe--pNA]	0.25 min⁻¹	0.58 min^-1	–
C[C@H](NC(=O)CCC(=O)O)C(=O)N[C@@H](Cc1ccccc1)C(=O)N1CCC[C@H]1C(=O)N[C@@H](Cc1ccccc1)C(=O)Nc1ccc([N+](=O)[O-])cc1 [Suc--Ala--Phe--Pro--Phe--pNA]	0.18 min⁻¹	3.0 min^-1	–
C[C@H](NC(=O)CCC(=O)O)C(=O)N[C@@H](CCC(=O)O)C(=O)N1CCC[C@H]1C(=O)N[C@@H](Cc1ccccc1)C(=O)Nc1ccc([N+](=O)[O-])cc1 [Suc--Ala--Glu--Pro--Phe--pNA] (Suc-AEPF-pNA)	a	a	–
CC[C@H](C)[C@H](NC(=O)[C@H](C)NC(=O)CCC(=O)O)C(=O)N1CCC[C@H]1C(=O)N[C@@H](Cc1ccccc1)C(=O)Nc1ccc([N+](=O)[O-])cc1 [Suc--Ala--Ile--Pro--Phe--pNA] (Suc-AIPF-pNA)	0.02 min⁻¹	0.69 min^-1	–
CC(C)C[C@H](NC(=O)[C@H](C)NC(=O)CCC(=O)O)C(=O)N1CCC[C@H]1C(=O)N[C@@H](Cc1ccccc1)C(=O)Nc1ccc([N+](=O)[O-])cc1 [Suc--Ala--Leu--Pro--Phe--pNA] (Suc-ALPF-pNA)	0.16 min⁻¹	1.61 min^-1	–
C[C@H](NC(=O)CCC(=O)O)C(=O)N[C@@H](Cc1c[nH]c2ccccc12)C(=O)N1CCC[C@H]1C(=O)N[C@@H](Cc1ccccc1)C(=O)Nc1ccc([N+](=O)[O-])cc1 [Suc--Ala--Trp--Pro--Phe--pNA] (Suc-AWPF-pNA)	0.14 min⁻¹	0.21 min^-1	–
C[C@H](NC(=O)CCC(=O)O)C(=O)NCC(=O)N1CCC[C@H]1C(=O)N[C@@H](Cc1ccccc1)C(=O)Nc1ccc([N+](=O)[O-])cc1 [Suc--Ala--Gly--Pro--Phe--pNA] (Suc-AGPF-pNA)	0.40 min⁻¹	a	–
